Values joined by “and” are separate entries in the source; they are usually repeats but may differ in a detail not shown here. Equal entries are not always repeated.
System: 287954-098-R-J1 tumor spheroid viability
Experiment: Anticancer human tumor 287954-098-R-J1 patient-derived Ewing sarcoma cell line growth inhibition
Settings: spheroids with HUVEC and MSC; for viability, T/C: stronger effect = lower value; active means viability on the fitted dose curve at most 10% of control; inactive means the rest
Method in brief: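 Single agents and combinations were tested on spheroids built from tumor cells plus HUVEC and hMSC, at half-log dilutions starting at or near clinical Cmax, else 10 microM; final DMSO 0.25% (v/v).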

[1] = curve of first compound, second compound 1 µM
[2] = curve of first compound, second compound 3.16 µM
[3] = curve of first compound, second compound 10 µM
[4] = curve of first compound, second compound 31.6 µM
[5] = curve of first compound, second compound 100 µM
[6] = second compound 1 µM, first compound 0.0316 µM
[7] = second compound 1 µM, first compound 0.1 µM
[8] = second compound 1 µM, first compound 0.316 µM
[9] = second compound 1 µM, first compound 1 µM
[10] = second compound 1 µM, first compound 3.16 µM
[11] = second compound 1 µM, first compound 10 µM
[12] = second compound 3.16 µM, first compound 0.0316 µM
[13] = second compound 3.16 µM, first compound 0.1 µM
[14] = second compound 3.16 µM, first compound 0.316 µM
[15] = second compound 3.16 µM, first compound 1 µM
[16] = second compound 3.16 µM, first compound 3.16 µM
[17] = second compound 3.16 µM, first compound 10 µM
[18] = second compound 10 µM, first compound 0.0316 µM
[19] = second compound 10 µM, first compound 0.1 µM
[20] = second compound 10 µM, first compound 0.316 µM
[21] = second compound 10 µM, first compound 1 µM
[22] = second compound 10 µM, first compound 3.16 µM
[23] = second compound 10 µM, first compound 10 µM
[24] = second compound 31.6 µM, first compound 0.0316 µM
[25] = second compound 31.6 µM, first compound 0.1 µM
[26] = second compound 31.6 µM, first compound 0.316 µM
[27] = second compound 31.6 µM, first compound 1 µM
[28] = second compound 31.6 µM, first compound 3.16 µM
[29] = second compound 31.6 µM, first compound 10 µM
[30] = second compound 100 µM, first compound 0.0316 µM
[31] = second compound 100 µM, first compound 0.1 µM
[32] = second compound 100 µM, first compound 0.316 µM
[33] = second compound 100 µM, first compound 1 µM
[34] = second compound 100 µM, first compound 3.16 µM
[35] = second compound 100 µM, first compound 10 µM
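Further: spheroids exposed to compound for 7 days before viability readout.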
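Wherever viability, T/C is given: luminescent signal taken as surrogate of viable cell content.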

CC(C)n1c(=O)n(C)c2cnc3cc(F)c(-c4ccc(OCCCN5CCCCC5)nc4)cc3c21 + Cn1nnc2c(C(N)=O)ncn2c1=O
inactive: viability, T/C [6] 97% | viability, T/C [7] 97.6% | viability, T/C [8] 110% | viability, T/C [9] 108% | viability, T/C [10] 105% | viability, T/C [11] 97.9% | viability, T/C [12] 106% | viability, T/C [13] 110% | viability, T/C [14] 110% | viability, T/C [15] 112% | viability, T/C [16] 118% | viability, T/C [17] 85.9% | viability, T/C [18] 109% | viability, T/C [19] 105% | viability, T/C [20] 104% | viability, T/C [21] 109% | viability, T/C [22] 118% | viability, T/C [23] 79.6% | viability, T/C [24] 113% | viability, T/C [25] 110% | viability, T/C [26] 105% | viability, T/C [27] 113% | viability, T/C [28] 113% | viability, T/C [29] 85.2% | viability, T/C [30] 92.5% | viability, T/C [31] 104% | viability, T/C [32] 94.3% | viability, T/C [33] 112% | viability, T/C [34] 109% | viability, T/C [35] 103%
> 10 µM: IC50 [1] | IC50 [2] | IC50 [3] | IC50 [4] | IC50 [5]

[2H]c1nc(C)nc([2H])c1-c1cc(NC[C@@H](C)c2cccc3c(C(=O)NC)ccnc23)ncn1
> 10 µM: IC50 (curve of compound)
inactive: viability, T/C (compound 0.0316 µM) 96.4% and 109% and 110% | viability, T/C (compound 0.1 µM) 101% and 107% and 112% | viability, T/C (compound 0.316 µM) 95.5% and 108% and 106% | viability, T/C (compound 1 µM) 104% and 102% and 108% | viability, T/C (compound 3.16 µM) 98.3% and 96.3% and 100% | viability, T/C (compound 10 µM) 101% and 103% and 109%

CC(C)n1c(=O)n(C)c2cnc3cc(F)c(-c4ccc(OCCCN5CCCCC5)nc4)cc3c21
6.24 µM and > 10 µM and 7.03 µM: IC50 (curve of compound)
inactive: viability, T/C (compound 0.0316 µM) 110% (2×) and 102% | viability, T/C (compound 0.1 µM) 102% (2×) and 101% | viability, T/C (compound 0.316 µM) 110% and 98.5% and 105% | viability, T/C (compound 1 µM) 102% and 110% and 112% | viability, T/C (compound 3.16 µM) 108% and 107% (2×) | viability, T/C (compound 10 µM) 11% and 86.6% and 25.5%

COc1cc(C)[nH]c(=O)c1CN1CCc2c(Cl)cc(C(OC)C3COC3)c(Cl)c2C1=O (stereo unspecified)
inactive: viability, T/C (compound 0.0316 µM) 97.7% and 96.7% and 96.6% | viability, T/C (compound 0.1 µM) 94.9% and 102% and 98.6% | viability, T/C (compound 0.316 µM) 82.7% and 91.7% and 95.5% | viability, T/C (compound 1 µM) 93.9% and 89.7% and 90.5% | viability, T/C (compound 3.16 µM) 95.1% and 83.6% and 94.9% | viability, T/C (compound 10 µM) 93% and 92.8% and 93.6%
> 10 µM: IC50 (curve of compound)

O=C(c1cc(Cc2n[nH]c(=O)c3ccccc23)ccc1F)N1CCN(C(=O)C2CC2)CC1
inactive: viability, T/C (compound 0.0949 µM) 103% | viability, T/C (compound 0.3 µM) 91.4% and 92.4% and 106% | viability, T/C (compound 0.949 µM) 91.6% and 89.5% and 109% | viability, T/C (compound 3 µM) 90.2% and 93.9% and 108% | viability, T/C (compound 9.49 µM) 87.1% and 76.8% and 96.1%
21.4 µM and 14.9 µM and 20.2 µM: IC50 (curve of compound)

CC[C@@]1(O)C(=O)OCc2c1cc1n(c2=O)Cc2cc3c(CN(C)C)c(O)ccc3nc2-1
15.2% [middle of 10 runs]: viability, T/C (compound 0.03 µM)
19.4 nM [middle of 5 runs]: IC50 (compound alone, run of 10/17/2019)
18.8 nM [middle of 4 runs]: IC50 (compound alone, run of 10/25/2019)
active: viability, T/C (compound 0.0949 µM) 1.9% [middle of 9 runs] | viability, T/C (compound 0.3 µM) 1.83% [middle of 10 runs]
inactive: viability, T/C (compound 0.003 µM) 104% [middle of 10 runs] | viability, T/C (compound 0.00949 µM) 101% [middle of 10 runs]

CNCc1ccc(-c2cc(-c3nc(-c4ccc(S(=O)(=O)C(C)C)cc4)cnc3N)on2)cc1
active: viability, T/C (compound 0.949 µM) 0.28% and 0.55% and 0.27% | viability, T/C (compound 3 µM) 0.18% and 0.53% and 0.23%
0.555 µM and 0.545 µM and 0.542 µM: IC50 (curve of compound)
inactive: viability, T/C (compound 0.00949 µM) 103% (2×) and 109% | viability, T/C (compound 0.03 µM) 108% and 117% and 107% | viability, T/C (compound 0.0949 µM) 110% and 112% and 105% | viability, T/C (compound 0.3 µM) 107% and 103% (2×)

COc1cc(C)[nH]c(=O)c1CN1CCc2c(Cl)cc(C(OC)C3COC3)c(Cl)c2C1=O (stereo unspecified) + Cn1nnc2c(C(N)=O)ncn2c1=O
> 10 µM: IC50 [1] | IC50 [2] | IC50 [3] | IC50 [4] | IC50 [5]
inactive: viability, T/C [6] 98% | viability, T/C [7] 89.7% | viability, T/C [8] 96.8% | viability, T/C [9] 93.3% | viability, T/C [10] 89% | viability, T/C [11] 90.7% | viability, T/C [12] 105% | viability, T/C [13] 100% | viability, T/C [14] 96.5% | viability, T/C [15] 91.9% | viability, T/C [16] 86.9% | viability, T/C [17] 93.3% | viability, T/C [18] 102% | viability, T/C [19] 99.6% | viability, T/C [20] 90.1% | viability, T/C [21] 89.6% | viability, T/C [22] 89.9% | viability, T/C [23] 93% | viability, T/C [24] 102% | viability, T/C [25] 97.4% | viability, T/C [26] 93.3% | viability, T/C [27] 89.8% | viability, T/C [28] 90.7% | viability, T/C [29] 96.1% | viability, T/C [30] 95% | viability, T/C [31] 99.9% | viability, T/C [32] 87.7% | viability, T/C [33] 83.9% | viability, T/C [34] 87% | viability, T/C [35] 83.5%
